Where “and” joins values, the source holds several entries; their conditions need not be identical. Equal entries are not always repeated.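 A five-concentration, 48-hour dose response in 96-well plates underlies each endpoint, interpolated linearly between surrounding concentrations. GI50: concentration for 50% inhibition of growth. TGI: total growth inhibition.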
Legend:
Assay in all cases: inhibition of tumour cell growth, NCI panel, 48 h
CAKI-1 renal = system: CAKI-1 renal
MDA-MB-435 = system: MDA-MB-435
DU-145 prostate = system: DU-145 prostate
SK-MEL-28 melanoma = system: SK-MEL-28 melanoma
MDA-MB-231 breast = system: MDA-MB-231 breast
NCI/ADR-RES ovarian = system: NCI/ADR-RES ovarian
HCT-116 colon = system: HCT-116 colon
HL-60(TB) leukemia = system: HL-60(TB) leukemia
NCI-H226 lung = system: NCI-H226 lung
SN12C renal = system: SN12C renal
786-0 renal = system: 786-0 renal
UO-31 renal = system: UO-31 renal
OVCAR-4 ovarian = system: OVCAR-4 ovarian
IGROV1 ovarian = system: IGROV1 ovarian
UACC-62 melanoma = system: UACC-62 melanoma
U251 CNS = system: U251 CNS
UACC-257 melanoma = system: UACC-257 melanoma
K-562 leukemia = system: K-562 leukemia
SK-OV-3 ovarian = system: SK-OV-3 ovarian
OVCAR-8 ovarian = system: OVCAR-8 ovarian
BT-549 breast = system: BT-549 breast
LOX IMVI melanoma = system: LOX IMVI melanoma
KM12 colon = system: KM12 colon
HCC-2998 colon = system: HCC-2998 colon
EKVX NSCLC = system: EKVX NSCLC
NCI-H23 lung = system: NCI-H23 lung
NCI-H522 lung = system: NCI-H522 lung
HCT-15 colon = system: HCT-15 colon
PC-3 prostate = system: PC-3 prostate

C1=C/COCc2cc(ccc2OCCN2CCCC2)Nc2nccc(n2)-c2cccc(c2)COC/1
TGI (CAKI-1 renal): 2040 nM and 2250 nM
GI50 (MDA-MB-435): 582 nM
TGI (MDA-MB-435): 1990 nM and 2030 nM
GI50 (DU-145 prostate): 433 nM and 749 nM
TGI (DU-145 prostate): 11200 nM and 3660 nM
GI50 (SK-MEL-28 melanoma): 1290 nM and 1150 nM
TGI (SK-MEL-28 melanoma): 2860 nM and 2430 nM
GI50 (MDA-MB-231 breast): 1170 nM and 798 nM
TGI (MDA-MB-231 breast): 3130 nM and 2920 nM
GI50 (NCI/ADR-RES ovarian): 1090 nM and 1760 nM
TGI (NCI/ADR-RES ovarian): 4330 nM and 6240 nM
GI50 (HCT-116 colon): 457 nM and 498 nM
TGI (HCT-116 colon): 2390 nM and 1780 nM
GI50 (HL-60(TB) leukemia): 181 nM and 522 nM
TGI (HL-60(TB) leukemia): 887 nM and 2150 nM
GI50 (NCI-H226 lung): 376 nM and 1280 nM
TGI (NCI-H226 lung): 1820 nM and 2730 nM
GI50 (SN12C renal): 587 nM and 586 nM
TGI (SN12C renal): 2620 nM and 2940 nM
GI50 (786-0 renal): 1280 nM and 1400 nM
TGI (786-0 renal): 3140 nM and 2880 nM
GI50 (UO-31 renal): 366 nM and 758 nM
TGI (UO-31 renal): 2020 nM and 3200 nM
GI50 (OVCAR-4 ovarian): 1550 nM and 1370 nM
TGI (OVCAR-4 ovarian): 4510 nM and 3210 nM
GI50 (IGROV1 ovarian): 498 nM and 552 nM
TGI (IGROV1 ovarian): 3020 nM and 3550 nM
GI50 (UACC-62 melanoma): 641 nM and 1300 nM
TGI (UACC-62 melanoma): 2120 nM and 2730 nM
GI50 (U251 CNS): 1120 nM and 1270 nM
TGI (U251 CNS): 2630 nM and 3140 nM
GI50 (UACC-257 melanoma): 1650 nM and 1480 nM
TGI (UACC-257 melanoma): 3250 nM and 2990 nM
GI50 (K-562 leukemia): 639 nM and 1180 nM
TGI (K-562 leukemia): 4050 nM and 4510 nM
GI50 (SK-OV-3 ovarian): 1450 nM and 1190 nM
TGI (SK-OV-3 ovarian): 3280 nM and 2580 nM
GI50 (OVCAR-8 ovarian): 1280 nM and 1840 nM
TGI (OVCAR-8 ovarian): 4310 nM and 8030 nM
GI50 (BT-549 breast): 2150 nM and 2300 nM
TGI (BT-549 breast): 5020 nM and 4870 nM
GI50 (LOX IMVI melanoma): 370 nM and 580 nM
TGI (LOX IMVI melanoma): 1580 nM and 2170 nM
GI50 (KM12 colon): 149 nM and 224 nM
TGI (KM12 colon): 1400 nM and 1570 nM
GI50 (HCC-2998 colon): 1180 nM and 1280 nM
TGI (HCC-2998 colon): 3190 nM and 3100 nM
GI50 (EKVX NSCLC): 1720 nM and 1760 nM
TGI (EKVX NSCLC): 8830 nM and 5740 nM
GI50 (NCI-H23 lung): 628 nM and 1140 nM
TGI (NCI-H23 lung): 2360 nM and 3210 nM
GI50 (NCI-H522 lung): 1750 nM and 1440 nM
TGI (NCI-H522 lung): 3750 nM and 3400 nM
GI50 (HCT-15 colon): 350 nM and 558 nM
TGI (HCT-15 colon): 2300 nM and 6840 nM
GI50 (PC-3 prostate): 620 nM and 1010 nM
TGI (PC-3 prostate): 3170 nM and 3930 nM

Source: PubChem BioAssay (NCI)
